Source: patent publication US20250262279A1, “DOSE REGIMEN FOR LONG-ACTING GLP1/GLUCAGON RECEPTOR AGONISTS” (Boehringer Ingelheim International GmbH, priority 2021, published 2025)
Read-outs that look alike come from different tables or passages of the source.

Assays:
[1] = Example 2: plasma pharmacokinetics; format: in vivo; conditions: human, sc, read-out: AUC0-168 (gMean)
From the text: In Table 9, only the gMean PK parameters of subjects who followed the planned dose rising scheme are included. Following subcutaneous administration of Compound I, the gMean plasma AUC0-168 and Cmax increased with further weekly or twice weekly dosing.

[2] = Example 1 Phase I titration study in obesity/overweight: safety and tolerability; conditions: for Patients withdrawn from up-titration: Ex.1 Part A (6 wk)
From the text: Blinded within dose groups, randomised, placebo-controlled
• Male patients (Part A); male and female patients (Part B) • Age 18 to <70 years • BMI 27 to <40 kg/m^2 • Body weight of at least 70 kg for women and 80 kg for men • Stable body weight, defined as no more than 5% change within 3 months prior to screening
Further criteria of interest: • AEs (including clinically relevant findings from the physical examination and assessment of local tolerability) • Safety laboratory tests • 12-lead ECG • Vital signs (blood pressure, pulse rate) • Continuous ECG (including mean daily heart rate) • Assessment of local tolerability by the investigator • The cumulative number [N (%)] of patients withdrawn from up-titration by up-titration scheme and week
Descriptive statistics were calculated for all endpoints. […] No formal interim analysis was conducted. Data from the completed 6-week cohorts were analysed before database lock for internal decision-making.

CC[C@H](C)[C@H](NC(=O)[C@H](Cc1ccccc1)NC(=O)[C@H](CC(=O)O)NC(=O)[C@H](CCCCN)NC(=O)[C@H](C)NC(=O)[C@H](C)NC(=O)[C@H](CCCNC(=N)N)NC(=O)[C@H](CCC(=O)O)NC(=O)[C@H](CC(=O)O)NC(=O)[C@H](CC(C)C)NC(=O)[C@H](Cc1ccc(O)cc1)NC(=O)[C@H](CCCCN)NC(=O)[C@H](CO)NC(=O)[C@H](Cc1ccc(O)cc1)NC(=O)[C@H](CC(=O)O)NC(=O)[C@H](CO)NC(=O)[C@@H](NC(=O)[C@H](Cc1ccccc1)NC(=O)[C@@H](NC(=O)CNC(=O)[C@H](CCC(N)=O)NC(=O)C1(NC(=O)[C@@H](N)Cc2c[nH]cn2)CCC1)[C@@H](C)O)[C@@H](C)O)C(=O)N[C@@H](CCCCNC(=O)CNC(=O)CNC(=O)[C@H](CO)NC(=O)CNC(=O)[C@H](CO)NC(=O)CNC(=O)CC[C@H](NC(=O)CCCCCCCCCCCCCCCCC(=O)O)C(=O)O)C(=O)N[C@@H](Cc1c[nH]c2ccccc12)C(=O)N[C@@H](CC(C)C)C(=O)N[C@@H](CCC(=O)O)C(=O)N[C@@H](CO)C(=O)N[C@@H](C)C(N)=O [Compound I]
AUC(0-t) ([1]; 0.6 mg, Ex.2 DG2 weekly, wk 1, 0.6 mg sc): 2.02 µM·h | AUC(0-t) ([1]; 0.6 mg, Ex.2 DG3 twice weekly, wk 3, 0.6 mg sc): 1.64 µM·h | AUC(0-t) ([1]; 0.9 mg, Ex.2 DG1 weekly, wk 3, 0.9 mg sc): 3.62 µM·h | AUC(0-t) ([1]; 0.9 mg, Ex.2 DG3 twice weekly, wk 5, 0.9 mg sc): 3.52 µM·h | AUC(0-t) ([1]; 0.9 mg, Ex.2 DG3 twice weekly, wk 6, 0.9 mg sc): 3.83 µM·h | AUC(0-t) ([1]; 1.2 mg, Ex.2 DG2 weekly, wk 3, 1.2 mg sc): 4.93 µM·h | AUC(0-t) ([1]; 1.2 mg, Ex.2 DG3 twice weekly, wk 7, 1.2 mg sc): 4.69 µM·h | AUC(0-t) ([1]; 1.5 mg, Ex.2 DG1 weekly, wk 5, 1.5 mg sc): 6.74 µM·h | AUC(0-t) ([1]; 1.5 mg, Ex.2 DG3 twice weekly, wk 9, 1.5 mg sc): 6.72 µM·h | AUC(0-t) ([1]; 1.8 mg, Ex.2 DG1 weekly, wk 6, 1.8 mg sc): 8.41 µM·h | AUC(0-t) ([1]; 1.8 mg, Ex.2 DG1 weekly, wk 7, 1.8 mg sc): 9.01 µM·h | AUC(0-t) ([1]; 1.8 mg, Ex.2 DG1 weekly, wk 9, 1.8 mg sc): 8.52 µM·h | AUC(0-t) ([1]; 1.8 mg, Ex.2 DG1 weekly, wk 11, 1.8 mg sc): 8.83 µM·h | AUC(0-t) ([1]; 1.8 mg, Ex.2 DG1 weekly, wk 13, 1.8 mg sc): 9.22 µM·h | AUC(0-t) ([1]; 1.8 mg, Ex.2 DG1 weekly, wk 15, 1.8 mg sc): 9.5 µM·h | AUC(0-t) ([1]; 1.8 mg, Ex.2 DG1 weekly, wk 16, 1.8 mg sc): 9.62 µM·h | AUC(0-t) ([1]; 1.8 mg, Ex.2 DG2 weekly, wk 5, 1.8 mg sc): 6.64 µM·h | AUC(0-t) ([1]; 1.8 mg, Ex.2 DG2 weekly, wk 6, 1.8 mg sc): 7.55 µM·h | AUC(0-t) ([1]; 1.8 mg, Ex.2 DG3 twice weekly, wk 11, 1.8 mg sc): 8.21 µM·h | AUC(0-t) ([1]; 2.1 mg, Ex.2 DG3 twice weekly, wk 13, 2.1 mg sc): 9.78 µM·h | AUC(0-t) ([1]; 2.4 mg, Ex.2 DG2 weekly, wk 7, 2.4 mg sc): 9.83 µM·h | AUC(0-t) ([1]; 2.4 mg, Ex.2 DG3 twice weekly, wk 15, 2.4 mg sc): 10.2 µM·h | AUC(0-t) ([1]; 2.4 mg, Ex.2 DG3 twice weekly, wk 16, 2.4 mg sc): 11.2 µM·h | AUC(0-t) ([1]; 3 mg, Ex.2 DG2 weekly, wk 9, 3.0 mg sc): 13.7 µM·h | AUC(0-t) ([1]; 3.6 mg, Ex.2 DG2 weekly, wk 11, 3.6 mg sc): 16.4 µM·h | AUC(0-t) ([1]; 4.2 mg, Ex.2 DG2 weekly, wk 13, 4.2 mg sc): 19.3 µM·h | AUC(0-t) ([1]; 4.8 mg, Ex.2 DG2 weekly, wk 15, 4.8 mg sc): 22.9 µM·h | clinical laboratory analyses ([2]; Ex.1 Part A): no treatment-emergent clinically relevant findings | deaths ([2]; Ex.1 Part A): No patients died | Patients withdrawn from up-titration ([2]; Compound I total): 27 (40.3) N (%) | Patients withdrawn from up-titration ([2]; Weekly 1): 6 (35.3) N (%) | Patients withdrawn from up-titration ([2]; Weekly 2): 8 (44.4) N (%) | Patients withdrawn from up-titration ([2]; Weekly 3): 13 (76.5) N (%) | Patients with AE leading to discontinuation of trial drug ([2]; Ex.1 Part A, Cmp I total): 5 (7.5) N (%) | Patients with any AE ([2]; Ex.1 Part A, Cmp I total): 67 (100) N (%) | Patients with investigator defined drug-related AE ([2]; Ex.1 Part A, Cmp I total): 67 (100) N (%) | Patients with other significant AEs (ICH E3) ([2]; Ex.1 Part A, Cmp I total): 5 (7.5) N (%) | Patients with serious AE ([2]; Ex.1 Part A, Cmp I total): 1 (1.5) N (%) | Patients with severe AE ([2]; Ex.1 Part A, Cmp I total): 3 (4.5) N (%) | Patients with AE leading to discontinuation of trial drug ([2]; Ex.1 Part A, Daily): 0 N (%) | Patients with any AE ([2]; Ex.1 Part A, Daily): 15 (100) N (%) | Patients with investigator defined drug-related AE ([2]; Ex.1 Part A, Daily): 15 (100) N (%) | Patients with other significant AEs (ICH E3) ([2]; Ex.1 Part A, Daily): 0 N (%) | Patients with serious AE ([2]; Ex.1 Part A, Daily): 0 N (%) | Patients with severe AE ([2]; Ex.1 Part A, Daily): 0 N (%) | drug-related abdominal distension, frequency ([2]; Ex.1 Part A, Daily): 13.3% | drug-related cardiac disorders ([2]; Ex.1 Part A, Daily): No drug-related cardiac disorders were reported | drug-related vomiting, frequency ([2]; Ex.1 Part A, Daily): no cases | Patients with AE leading to discontinuation of trial drug ([2]; Ex.1 Part A, Weekly 1): 1 (5.9) N (%) | Patients with any AE ([2]; Ex.1 Part A, Weekly 1): 17 (100) N (%) | Patients with investigator defined drug-related AE ([2]; Ex.1 Part A, Weekly 1): 17 (100) N (%) | Patients with other significant AEs (ICH E3) ([2]; Ex.1 Part A, Weekly 1): 1 (5.9) N (%) | Patients with serious AE ([2]; Ex.1 Part A, Weekly 1): 0 N (%) | Patients with severe AE ([2]; Ex.1 Part A, Weekly 1): 1 (5.9) N (%) | proportion of patients who withdrew from up-titration ([2]; Ex.1 Part A, Weekly 1): 35.3% | patients with severe diarrhoea ([2]; Ex.1 Part A, Weekly 1 and Weekly 2): 2 patients | Patients with AE leading to discontinuation of trial drug ([2]; Ex.1 Part A, Weekly 2): 2 (11.1) N (%) | Patients with any AE ([2]; Ex.1 Part A, Weekly 2): 18 (100) N (%) | Patients with investigator defined drug-related AE ([2]; Ex.1 Part A, Weekly 2): 18 (100) N (%) | Patients with other significant AEs (ICH E3) ([2]; Ex.1 Part A, Weekly 2): 2 (11.1) N (%) | Patients with serious AE ([2]; Ex.1 Part A, Weekly 2): 1 (5.6) N (%) | Patients with severe AE ([2]; Ex.1 Part A, Weekly 2): 2 (11.1) N (%) | patients with severe vomiting ([2]; Ex.1 Part A, Weekly 2): one | proportion of patients who withdrew from up-titration ([2]; Ex.1 Part A, Weekly 2): 44.4% | patients with serious AE ventricular tachycardia ([2]; Ex.1 Part A, Weekly 2, assessed as drug-related, led to discontinuation): One | Patients with AE leading to discontinuation of trial drug ([2]; Ex.1 Part A, Weekly 3): 2 (11.8) N (%)
